Assay [1] has as its system metastatic adenocarcinoma PC3 prostate Cancer cells. The assay can be described thus: viability / killing of PC3 cells. The format is cell-based. The following applies: E266 versus E260; compound (I) as tartarate salt in 0.5% Tween-80; FIG. 6. The procedure: (§1) The compound (I), as tartarate salt was dissolved in 0.5% Tween-80 to affect the viability of several cell lines as follows.
(§2) The effect of the compound (I) (E266) on the growth profile of cancer cells which express Fer was tested. The cells that were tested were: the metastatic colon cancer cell line—SW620, the metastatic pancreatic ductal-adenocarcinoma SU.86.86 cancer cell-line—SU.86.86, the metastatic Triple Negative breast cancer cell line—MDA-MB-231, and the metastatic prostate cancer cell-line—PC3. The effect of the compound (I) (E266) on FS11 cells, a non malignant fibroblastic cell line, was also studied.

The subject of assay [2] is metastatic colon cancer SW620 cells. Description: viability / killing of SW620 cells. The format is cell-based. The following applies: E266 versus E260; compound (I) as tartarate salt in 0.5% Tween-80; FIG. 3. The procedure: as §1, §2

Consider `CC(C)c1ccc(-c2cn3nc(N4CCC(CN5CCN(CCO)CC5)CC4)sc3n2)cc1` [Compound E266, 2-(4-{1-[6-(4-isopropyl-phenyl)-imidazo[2,1-b][1,3,4]thiadiazol-2-yl]-piperidin-4-ylmethyl}-piperazin-1-yl)-ethanol], for which the “killing metastatic adenocarcinoma PC3 prostate Cancer cells” value in assay [1] is listed as “comparable activity”. For the same compound, in assay [2], the “killing metastatic colon cancer SW620 cells” value is reported as “comparable activity”.

The values above are taken from patent publication US12084459B2, “2-(4-{1-[6-(4-isopropyl-phenyl)-imidazo[2,1-b][1,3,4]thiadiazol-2-yl]-piperidin-4-ylmethyl}-piperazin-1-yl)-ethanol and use thereof” (Urifer Ltd., priority 2020, dated 2024).
